Experimental data: ChEMBL document CHEMBL5131436, “Dual Sigma-1 receptor antagonists and hydrogen sulfide-releasing compounds for pain treatment: Design, synthesis, and pharmacological evaluation” (Eur J Med Chem, 2022)
In brackets after ≈: the same amount, converted by molar mass. Activity calls are given as the source filed them. The rule behind the calls is not given here.

Experiments:
[1] = target: T1, Sigma intracellular receptor 2 (Rattus norvegicus, UniProt Q5U3Y7); assay: biochemical
T1 sequence (Q5U3Y7 whole entry): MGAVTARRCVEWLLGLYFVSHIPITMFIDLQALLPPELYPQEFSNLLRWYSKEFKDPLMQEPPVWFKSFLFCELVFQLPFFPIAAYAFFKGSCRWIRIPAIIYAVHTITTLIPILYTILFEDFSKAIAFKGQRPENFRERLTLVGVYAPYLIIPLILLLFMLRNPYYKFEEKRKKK

[2] = target: T2, Sigma non-opioid intracellular receptor 1 (Cavia porcellus, UniProt Q60492); assay: biochemical
[3] = system: Mus musculus; assay: Analgesic activity in wild type CD1 mouse model of capsaicin-induced mechanical hypersensitivity assessed as reduction of capsaicin-induced mechanical hypersensitivity at 40 mg/kg, sc in presence of sigma1 receptor agonist PRE-084; assay type: functional, organism-based
[4] = target: Mu-type opioid receptor (Rattus norvegicus, UniProt P33535); assay: Displacement of [3H]-DAMGO from Sprague-Dawley rat brain membrane mu opioid receptor incubated for 45 mins by liquid scintillation counting analysis; assay type: cell membranes
[5] = target: Kappa-type opioid receptor (Cavia porcellus, UniProt P41144); assay: Displacement of [3H]-U69593 from Dunkin-Hartley guinea pig brain membrane kappa opioid receptor incubated for 30 mins by liquid scintillation counting analysis; assay type: cell membranes
[6] = system: Mus musculus; assay: Analgesic activity in wild type CD1 mouse model of capsaicin-induced mechanical hypersensitivity assessed as reduction of capsaicin-induced mechanical hypersensitivity at 10 to 40 mg/kg, sc; assay type: functional, organism-based; settings: dose 10-40 mg/kg
[7] = target: Delta-type opioid receptor (Rattus norvegicus, UniProt P33533); assay: Displacement of [3H]-(2-D-Ala)[Tyrosy1-3,5-]-DELTORPHIN II from Sprague-Dawley rat brain membrane delta opioid receptor incubated for 45 mins by liquid scintillation counting analysis; assay type: cell membranes
[8] = target: Voltage-gated inwardly rectifying potassium channel KCNH2 (Homo sapiens, UniProt Q12809); assay: Inhibition of human ERG potassium channel expressed in CHO-K1 cells by Qube-automated patch clamp assay; assay type: toxicity, cell-based
[9] = Aqueous solubility of compound at 5 mg measured for 24 hrs by UHPLC-PDA analysis; assay type: physicochemical; settings: water
[10] = Stability of compound in saline solution assessed as half life by UHPLC-PDA analysis; assay type: physicochemical
[11] = Induction of H2S release in PBS buffer incubated for 1 hrs in presence of Washington State Probe-1 by spectrofluorimeter assay; assay type: functional
[12] = target: hERG (KCNH2) (Homo sapiens, UniProt Q12809); assay: Inhibition of human ERG potassium channel expressed in CHO-K1 cells at 10 uM by Qube-automated patch clamp assay relative to control; assay type: toxicity, cell-based; settings: CHO-K1 cells expressing human ERG potassium channel
[13] = Stability of compound in phosphate buffer at pH 7.4 assessed as half life by UHPLC-PDA analysis; assay type: physicochemical
[14] = Induction of hypotension in wild type CD1 mouse assessed as mean arterial blood pressure at 30 to 40 mg/kg, sc incubated upto 45 mins by tail-cuff plethysmography; assay type: toxicity, organism-based; settings: in vivo, 0.75 h, dose 30-40 mg/kg
[15] = Induction of motor coordination impairment in wild type CD1 mouse assessed as latency to fall at 40 mg/kg, sc measured upto 4 hrs by rotarod test; assay type: toxicity, organism-based; settings: in vivo
[16] = target: T2, Sigma non-opioid intracellular receptor 1
[17] = system: Mus musculus; assay: Antinociceptive activity in sc dosed wild type CD1 mouse model of capsaicin-induced mechanical hypersensitivity assessed as reduction in mechanical hypersensitivity; assay type: functional
[18] = system: Mus musculus; assay: Analgesic activity in wild type CD1 mouse model of capsaicin-induced mechanical hypersensitivity assessed as reduction in mechanical hypersensitivity at 5 mg/kg, sc in presence of BD-1063 at 5 mg/kg and PRE-084 at 32 mg/kg; assay type: functional, organism-based
[19] = system: Mus musculus; assay: Analgesic activity in wild type CD1 mouse model of capsaicin-induced mechanical hypersensitivity assessed as reduction in mechanical hypersensitivity at 5 mg/kg, sc in presence of sigma-1 receptor antagonist BD-1063 at 5 mg/kg; assay type: functional
[20] = Induction of H2S release in PBS buffer at 100 uM in presence of Washington State Probe-1 by spectrofluorimeter assay; assay type: functional
[21] = Induction of motor coordination impairment in wild type CD1 mouse assessed as latency to fall at 5 mg/kg, sc in presence of sigma-1 receptor […] BD-1063 at 5 mg/kg, sc measured upto 4 hrs by rotarod test; assay type: toxicity, organism-based; settings: in vivo
[22] = system: Mus musculus; assay: Antinociceptive activity in wild type CD1 mouse model of capsaicin-induced mechanical hypersensitivity assessed as reduction in mechanical hypersensitivity at 10 mg/kg, sc in presence of Sigma 1 receptor agonist PRE-084; assay type: functional, organism-based
[23] = target: Sigma non-opioid intracellular receptor 1 (Homo sapiens, UniProt Q99720); assay: Displacement of [3H]-pentazocine from Sigma 1-receptor (unknown origin)
[24] = target: Sigma intracellular receptor 2 (Homo sapiens, UniProt Q5BJF2); assay: Displacement of [3H]-di-o-tolylguanidine from Sigma 2-receptor (unknown origin)
Chain of Sigma intracellular receptor 2 (Homo sapiens, UniProt Q5BJF2) (Q5BJF2 whole entry): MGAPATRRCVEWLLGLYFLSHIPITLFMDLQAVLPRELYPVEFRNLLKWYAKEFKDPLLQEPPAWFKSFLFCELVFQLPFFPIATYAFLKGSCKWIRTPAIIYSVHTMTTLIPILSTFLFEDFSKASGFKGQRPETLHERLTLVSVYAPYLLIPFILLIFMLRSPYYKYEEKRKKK

Chain of Mu-type opioid receptor (P33535 whole entry): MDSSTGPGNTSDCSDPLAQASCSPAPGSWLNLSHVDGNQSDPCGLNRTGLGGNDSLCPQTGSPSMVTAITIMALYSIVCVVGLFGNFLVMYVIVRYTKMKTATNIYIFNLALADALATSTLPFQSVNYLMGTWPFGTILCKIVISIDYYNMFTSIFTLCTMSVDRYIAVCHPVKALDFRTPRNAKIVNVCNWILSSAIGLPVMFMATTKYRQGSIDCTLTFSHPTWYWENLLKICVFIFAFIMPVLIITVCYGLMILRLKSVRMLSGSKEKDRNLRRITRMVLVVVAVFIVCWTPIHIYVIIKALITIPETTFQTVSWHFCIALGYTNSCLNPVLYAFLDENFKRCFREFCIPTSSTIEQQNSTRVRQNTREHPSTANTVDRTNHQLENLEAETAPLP
Chain of Kappa-type opioid receptor (P41144 whole entry): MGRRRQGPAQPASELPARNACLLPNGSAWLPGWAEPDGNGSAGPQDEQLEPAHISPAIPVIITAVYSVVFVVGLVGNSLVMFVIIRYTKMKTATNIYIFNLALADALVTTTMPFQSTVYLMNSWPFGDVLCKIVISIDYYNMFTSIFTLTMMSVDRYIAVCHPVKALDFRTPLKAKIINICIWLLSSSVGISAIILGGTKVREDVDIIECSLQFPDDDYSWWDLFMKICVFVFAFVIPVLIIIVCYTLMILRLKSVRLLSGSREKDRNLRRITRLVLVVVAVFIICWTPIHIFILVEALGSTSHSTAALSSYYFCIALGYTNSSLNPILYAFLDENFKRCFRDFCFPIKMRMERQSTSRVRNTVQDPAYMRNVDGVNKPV
T2 sequence (Q60492 whole entry): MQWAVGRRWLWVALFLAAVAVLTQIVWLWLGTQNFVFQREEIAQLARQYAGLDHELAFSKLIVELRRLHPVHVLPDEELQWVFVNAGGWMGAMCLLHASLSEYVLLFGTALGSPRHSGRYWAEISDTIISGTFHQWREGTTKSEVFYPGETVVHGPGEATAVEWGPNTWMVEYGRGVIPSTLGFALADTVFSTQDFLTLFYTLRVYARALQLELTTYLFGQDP
Chain of Delta-type opioid receptor (P33533 whole entry): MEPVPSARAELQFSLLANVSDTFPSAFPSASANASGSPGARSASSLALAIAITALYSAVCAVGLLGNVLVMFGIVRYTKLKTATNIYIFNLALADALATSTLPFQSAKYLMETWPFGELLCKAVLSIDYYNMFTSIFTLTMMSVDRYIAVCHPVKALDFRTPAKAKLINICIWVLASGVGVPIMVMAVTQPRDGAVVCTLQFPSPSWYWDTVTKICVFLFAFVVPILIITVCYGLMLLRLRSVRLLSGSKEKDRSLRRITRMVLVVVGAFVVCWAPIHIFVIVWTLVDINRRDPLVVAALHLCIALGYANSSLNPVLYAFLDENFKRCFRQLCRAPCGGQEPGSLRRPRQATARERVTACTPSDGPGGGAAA
Chain of Sigma non-opioid intracellular receptor 1 (Homo sapiens, UniProt Q99720) (Q99720 whole entry): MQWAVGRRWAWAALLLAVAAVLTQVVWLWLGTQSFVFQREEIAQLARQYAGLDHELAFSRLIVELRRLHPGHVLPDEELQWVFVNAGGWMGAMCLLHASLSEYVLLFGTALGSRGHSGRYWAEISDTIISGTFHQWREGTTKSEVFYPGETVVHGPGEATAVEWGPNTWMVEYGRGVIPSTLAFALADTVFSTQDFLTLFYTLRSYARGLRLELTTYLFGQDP
Chain of Voltage-gated inwardly rectifying potassium channel KCNH2 (Q12809 whole entry): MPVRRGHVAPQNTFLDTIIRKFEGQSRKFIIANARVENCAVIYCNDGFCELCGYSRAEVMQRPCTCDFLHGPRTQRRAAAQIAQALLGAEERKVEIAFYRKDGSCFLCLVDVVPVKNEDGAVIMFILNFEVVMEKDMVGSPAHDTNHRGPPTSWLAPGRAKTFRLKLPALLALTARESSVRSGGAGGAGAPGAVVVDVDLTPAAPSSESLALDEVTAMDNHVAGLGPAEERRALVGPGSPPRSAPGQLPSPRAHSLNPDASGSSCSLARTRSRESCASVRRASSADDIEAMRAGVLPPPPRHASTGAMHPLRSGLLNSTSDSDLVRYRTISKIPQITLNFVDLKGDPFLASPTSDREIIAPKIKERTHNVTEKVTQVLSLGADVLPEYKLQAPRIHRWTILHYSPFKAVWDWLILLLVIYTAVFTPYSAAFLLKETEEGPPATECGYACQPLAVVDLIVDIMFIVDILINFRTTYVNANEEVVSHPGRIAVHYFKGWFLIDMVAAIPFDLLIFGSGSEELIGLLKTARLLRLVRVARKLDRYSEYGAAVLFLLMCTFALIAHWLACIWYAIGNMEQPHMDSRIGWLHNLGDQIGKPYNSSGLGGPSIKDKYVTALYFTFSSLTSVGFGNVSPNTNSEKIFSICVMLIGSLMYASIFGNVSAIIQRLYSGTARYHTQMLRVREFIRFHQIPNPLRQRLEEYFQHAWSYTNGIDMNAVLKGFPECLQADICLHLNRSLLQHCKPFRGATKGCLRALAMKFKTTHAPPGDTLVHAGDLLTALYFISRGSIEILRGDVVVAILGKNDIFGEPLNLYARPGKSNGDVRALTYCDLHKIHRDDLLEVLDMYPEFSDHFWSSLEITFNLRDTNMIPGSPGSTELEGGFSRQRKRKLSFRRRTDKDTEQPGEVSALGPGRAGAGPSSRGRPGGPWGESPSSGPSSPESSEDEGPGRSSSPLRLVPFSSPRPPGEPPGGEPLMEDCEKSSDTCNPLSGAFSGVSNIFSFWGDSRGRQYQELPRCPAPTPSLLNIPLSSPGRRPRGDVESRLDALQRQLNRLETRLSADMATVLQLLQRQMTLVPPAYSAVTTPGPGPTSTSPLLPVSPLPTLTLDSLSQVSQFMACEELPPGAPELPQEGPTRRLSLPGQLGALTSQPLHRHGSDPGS
Chain of hERG (KCNH2) (Q12809 whole entry): as above

| Structure (SMILES) | Ki [1] [nM] | Ki [2] [nM] | Ki [4] [nM] | Ki [5] [nM] | Ki [7] [nM] | Activity [11] [µM] | also measured |
| --- | --- | --- | --- | --- | --- | --- | --- |
| C[C@@H]1CCO[C@H]2Cn3cc(C(=O)NCc4ccc(F)cc4F)c(=O)c(O)c3C(=O)N12 [DOLUTEGRAVIR] | 18 | 124 |  |  |  |  |  |
| NC(=O)c1ccc(C(=O)N2CCN(Cc3ccccc3)CC2)cc1 | > 10000 | > 5000 | 2550 | > 10000 | > 10000 |  | Activity [3]: Active; Activity [6]: Active |
| NC(=O)c1ccc(C(=O)O)cc1 | > 10000 | > 10000 | > 10000 | > 10000 | > 10000 |  |  |
| NC(=O)c1ccc(C(=O)OCCCCN2CCC(O)(c3ccc(Cl)cc3)CC2)cc1 | 933 | 126 | > 10000 | > 10000 | > 10000 |  |  |
| NC(=S)c1ccc(C(=O)NC2CCN(Cc3ccccc3)CC2)cc1 |  |  | > 10000 | > 10000 | > 10000 | 38.4 | IC50 [8]: 6800 nM; solubility at 24 h [9]: 1.25 µM (≈ 0.442 µg/mL); Activity [3]: Active; half-life [10]: 4.17 h; inhibition at 10 µM [12]: 60%; Activity [6]: Active; half-life [13]: 1.55 h; Activity [14]: Non-Toxic; Activity [15]: Non-Toxic |
| NC(=O)c1ccc(C(=O)NC2CCN(Cc3ccccc3)CC2)cc1 |  |  | > 10000 | > 10000 | > 10000 |  |  |
| CN1CCN(CCc2ccc(Cl)c(Cl)c2)CC1 |  |  |  |  |  |  | Ki [16]: 14 nM; ED50 [17]: 10.3 mg/kg |
| NC(=S)c1ccc(C(=O)OCCCCN2CCC(O)(c3ccc(Cl)cc3)CC2)cc1 | 266 | 58 | > 10000 | > 10000 | > 10000 | 41.8 |  |
| NC(=S)c1ccc(C(=O)OC(CCCN2CCC(O)(c3ccc(Cl)cc3)CC2)c2ccc(F)cc2)cc1 (stereo not drawn) | 311 | 156 | 1460 | > 10000 | > 10000 | 51.7 |  |
| NC(=S)c1ccc(C(=O)N2CCN(Cc3ccccc3)CC2)cc1 | > 10000 | 668 | > 10000 | > 10000 | > 10000 | 46.7 | Activity [3]: Active; Activity ([6]; DDE = dose-dependent effect): Dde |
| Oc1ccc2c3c1O[C@H]1c4[nH]c5ccccc5c4C[C@@]4(O)[C@@H](C2)N(CC2CC2)CC[C@]314 [NALTRINDOLE] |  |  |  |  | 2.53 |  |  |
| NC(=S)c1ccc(C(=O)O)cc1 |  |  | > 10000 | > 10000 | > 10000 | 34.4 | Activity [18]: Active; ED50 [17]: 6.12 mg/kg; ED50 [19]: 7.52 mg/kg; ED75 [19]: 9.75 mg/kg; ED90 [19]: 12.6 mg/kg; Activity [20]: Active; Activity [21]: Non-Toxic; Activity [22]: Active |
| NC(=O)c1ccc(C(=O)OC(CCCN2CCC(O)(c3ccc(Cl)cc3)CC2)c2ccc(F)cc2)cc1 (stereo not drawn) | 618 | 173 | 817 | > 10000 | > 10000 |  |  |
| O=C(NC1CCN(Cc2ccccc2)CC1)c1ccc(F)cc1 |  | 6 |  |  |  |  | Ki [23]: 6 nM; Ki [24]: 190 nM |
